One assay concerns the target Dual specificity protein kinase TTK (Homo sapiens) (UniProt P33981). In words: Inhibition of Mps1-mediated p38 MAPK phosphorylation after 90 mins by DELFIA assay.
For `CCOc1nc(Nc2ccccc2)cc(N)c1C#N`, the IC50 stood at 228 nM. Turning to `CCOc1nc(C(=O)NCc2ccc(S(C)(=O)=O)cc2)cc(N)c1C#N` [4-amino-5-cyano-6-ethoxy-N-[(4-methanesulfonylphenyl)methyl]pyridine-2-carboxamide], the midpoint of inhibition, the IC50, lay at 568 nM. `CCOc1nc(Nc2ccc(C(N)=O)cc2)cc(N)c1C#N`: the IC50 came to 37 nM. As for `CCOc1nc(C(=O)NCc2ccccc2)cc(N)c1C#N` [4-Amino-5-cyano-6-ethoxy-pyridine-2-carboxylic acid benzylamide], the midpoint of inhibition, the IC50, lay at 529 nM. In turn, `CCOc1nc(NC(=O)Cc2ccccc2)cc(N)c1C#N` [N-(4-Amino-5-cyano-6-ethoxypyridin-2-yl)-2-phenylacetamide] displayed an IC50 of 4200 nM. Consider `CCOc1nc(NCCc2ccccc2)cc(N)c1C#N`, for which half-maximal inhibition (IC50) was put at 3970 nM.

The target is the same in another assay. In words: Inhibition of FLAG-tagged Mps1 autophosphorylation in human RERF-LC-AI cells expressing Tet-suppressible promotor after 3 hrs by immunoblotting. Background: In western blotting, separated proteins are transferred to a membrane and probed.
Turning to `CCOc1nc(Nc2ccc(C(N)=O)cc2)cc(N)c1C#N`, 1800 nM corresponded to half-maximal inhibition (IC50).

As usually defined, the IC50 is the concentration at which inhibition is half-maximal.

(Values after BindingDB's records for doi:10.1021/ml3000879 (2012).)
